From PMC8617031, “Development of a BCL-xL and BCL-2 dual degrader with improved anti-leukemic activity,” (Nature Communications, 2021)
Values joined by “and” are separate entries in the source; they are usually repeats but may differ in a detail not shown here. Equal entries are not always repeated.

System: Flag-BCL-2 (WT and lysine mutants)
Assay: Degradation of Flag-BCL-2 WT and lysine mutants in transfected 293T cells
Type: cell-based, human
Conditions: 753b-treated 293T, DMSO = 100, Fig. 5b
Procedure: Cells were collected, washed once with ice-cold phosphate-buffered saline, pH 7.2 (PBS, cat. no. 20012027; Thermo Fisher Scientific) and lysed in RIPA lysis buffer (Cat. No. BP-115DG, Boston Bio Products, Ashland, MA, USA) supplemented with protease and phosphatase inhibitor cocktails (Cat. No. PPC1010, Sigma-Aldrich, St. Louis, MO, USA) through sonication. The samples were centrifuged at 14,000 r.p.m. for 5 min and the supernatants were transferred into a new tube. The protein concentration in the supernatants was determined using the Pierce BCA protein Assay kit (cat. no. 23225, Thermo Fisher Scientific). The protein concentration was normalized, and the samples were reduced in 4× Laemmli’s SDS-sample buffer (cat. no. BP-110R, Boston Bio Products) and denatured at 95 °C for 5 min. An equal amount of protein samples (20–40 μg per lane) were resolved using precast 4–20% Tris-glycine gels (Mini-PROTEAN TGX, cat. no. 456–1094, Bio-Rad), and resolved proteins were transferred onto 0.2-µm pore size polyvinylidene difluoride (PVDF) blotting membranes (cat. no. LC2002, Thermo Fisher Scientific) using mini trans-blot electrophoretic transfer cell (Bio-Rad). The membranes were blocked with non-fat dry milk (5% wt/vol) in 1× Tris-buffered saline-Tween-20 (TBST, cat. no. J77500, Affymetrix) for 1 h at room temperature, and were subsequently probed with primary antibodies at a predetermined optimal concentration in non-fat dry milk (5% wt/vol in TBST) overnight at 4 °C. The membranes were washed three times (5 min each) in TBST and then incubated with horse radish peroxidase (HRP)-conjugated secondary antibodies for 1 h at room temperature. Following sufficient washing with TBST, the membranes were exposed with chemiluminescent HRP substrate (cat. no. WBKLS0500, MilliporeSigma), and the signal was detected using the ChemiDoc MP Imaging System (Bio-Rad) and quantified using the ImageJ (v1.53a) software from NIH.
Plasmids were purified on miniprep columns according to the manufacturer’s protocol (Cat. No. 27106 Qiagen, Germantown, MD, USA). The construction of Flag-BCL-xL (pDL2009) and Flag-BCL-xL-K-ko (pDL2129) were described previously. Flag-BCL-2 was a gift from Clark Distelhorst (Addgene plasmid # 18003, Watertown, MA, USA). Plasmids Flag-BCL-xL-K16-only, Flag-BCL-xL-K20-only, Flag-BCL-xL-K157-only, Flag-BCL-xL-K-ko-R34K, Flag-BCL-xL-K-ko-R102K, Flag-BCL-xL-K-ko-R132K, Flag-BCL-xL-K-ko-G186K, Flag-BCL-2-K17R, Flag-BCL-2-K22R, and Flag-BCL-2-K17/22R were constructed by using Q5® Site-Directed Mutagenesis Kit (Cat. No. E0554S, NEB, Ipswich, MA, USA) and the following primer sets. Flag-BCL-xL-K-ko (pDL2129) or Flag-BCL-2 was used as the template. […]

Cc1ncsc1-c1ccc([C@H](C)NC(=O)[C@@H]2C[C@@H](O)CN2C(=O)[C@@H](NC(=O)CCCCCCC(=O)N2CCN(C[C@]3(C)CCC(c4ccc(Cl)cc4)=C(CN4CCN(c5ccc(C(=O)NS(=O)(=O)c6ccc(N[C@H](CCN7CCOCC7)CSc7ccccc7)c(S(=O)(=O)C(F)(F)F)c6)cc5)CC4)C3)CC2)C(C)(C)C)cc1 [753b]
relative Flag-BCL-2 protein content (K17/22R mutant): 87 and 104 and 94 | relative Flag-BCL-2 protein content (K17R mutant): 83 and 90 and 96 | relative Flag-BCL-2 protein content (K22R mutant): 38 and 28 and 35 | relative Flag-BCL-2 protein content (WT Flag-BCL-2, 3 replicates): 8 and 16 and 27
